# Experiments:
# endothelin 1A receptor = target: T1, endothelin 1A receptor (Sus scrofa, UniProt Q29010); conditions: porcine saphenous vein-carotid artery interposition grafts; cited from earlier work
# T1 construct: host or cells: in vivo, porcine vein grafts
# T1 sequence (Q29010 21-427): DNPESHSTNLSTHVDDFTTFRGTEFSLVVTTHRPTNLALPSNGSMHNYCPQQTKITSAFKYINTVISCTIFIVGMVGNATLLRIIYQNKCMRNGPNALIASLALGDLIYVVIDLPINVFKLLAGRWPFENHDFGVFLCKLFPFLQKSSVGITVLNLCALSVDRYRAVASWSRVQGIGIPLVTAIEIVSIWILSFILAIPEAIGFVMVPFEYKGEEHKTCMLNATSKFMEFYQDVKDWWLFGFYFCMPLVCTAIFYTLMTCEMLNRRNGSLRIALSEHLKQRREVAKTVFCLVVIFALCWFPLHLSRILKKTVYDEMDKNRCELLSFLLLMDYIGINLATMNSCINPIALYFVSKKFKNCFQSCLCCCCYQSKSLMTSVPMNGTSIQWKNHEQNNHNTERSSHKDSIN
# [1] = tested on: healthy adult hound dogs (left circumflex coronary artery, LCx, territory); assay: Endothelin-induced myocardial perfusion defects by 82Rb PET imaging in dogs; format: in vivo, dog; conditions: for severity of perfusion defect after intracoronary infusion: intracoronary into LCx for 10 min, L-NMMA 100-400 μg/kg/min in five dogs vs ET-1; for AD i.c. pre-ET: LCx 82Rb uptake as % of baseline: intracoronary adenosine before ET-1; for AD i.c. post-ET: LCx 82Rb uptake as % of baseline: intracoronary adenosine after ET-1; for AD i.v.: LCx 82Rb uptake as % of baseline: intravenous adenosine 0.142 mg/kg/min after ET-1
# Method: Experimental Preparation. The experimental protocol was approved by the Animal Welfare Committee of the University of Texas Health Sciences Center at Houston. After an overnight fast, healthy adult hound dogs (n=14) of both sexes, 21-35 kg, were anesthetized with 30 mg/kg pentobarbital sodium (Nembutal) and underwent endotracheal intubation and mechanical ventilation with adequate anesthesia maintained by small supplemental doses during the experiment. Arterial blood gases were maintained within physiological range by adjusting the mechanical ventilator with supplemental oxygen, core body temperature was maintained at 37° C. with a homeothermic blanket, and stable body position was maintained throughout the duration of the imaging protocol by using a specially designed portable cradle for both coronary arteriography and PET imaging without moving the dog strapped to the portable cradle.
# Arterial access was obtained via the right femoral artery by standard Seldinger technique with an arterial micropuncture kit (Cook, Bloomington, Ind.) with a 6-F arterial sheath. All animals received 100 IU/kg of initial heparin bolus, with 50 IU/kg every hour for the duration of the experiment. A 6-F standard JL3 VistaBrite coronary guide catheter (Cordis-Cardiology, Miami Lakes, Fla.) was positioned under fluoroscopic guidance into the left main coronary artery ostium.
# After a stable position for the guide catheter was obtained, a 0.014-in.-diameter Hi-Torque Whisper guide wire (Guidant, Indianapolis, Ind.) was placed in the left circumflex coronary artery (LCx). Over the coronary wire, a 2.3-F, 150-cm-long, 0.042-in.-minimal diameter Rapidtransit infusion catheter (Cordis-Cardiology) was positioned in the LCx, with the tip in the midsegment of the LCx artery proximal to the takeoff of the first large obtuse marginal branch. The guide wire was removed, the guide catheter was withdrawn into the aortic root, and the small catheter was left in place in the mid-LCx.
# Experimental Protocol. Contrast angiograms were obtained to document the LCx as the dominant coronary artery and the small catheter position in the mid-LCx. With contrast solution diluted 50% with normal saline, different injection rates were tested to determine the rate at which back flow occurred into the proximal segment of the coronary artery. […] Dogs were then moved into the PET scanner without changing position on the special cradle, and a repeat subselective angiogram was performed under fluoroscopy on the PET imaging table to ensure that the small intracoronary infusion catheter positioned in the mid-LCx had not changed during transportation. PET imaging was carried out with the University of Texas-designed Posicam BGO multislice tomograph HZL/mPower (Positron, Houston) as previously described (e.g., Halcox et al., Circulation 106:653-658, 2002), with a reconstructed resolution of 10-mm full-width half-maximum. Images were acquired in two-dimensional mode with extended septa to minimize scattered counts with random coincidences corrected from the singles count rate.
# On the basis of a 5-min positioning transmission scan, dogs were precisely positioned in the PET scanner and laser guides aligned to external body markers were used to check correct position for every image acquisition. With a rotating rod source containing 4-5 mCi of ^68Ge, transmission images to correct for photon attenuation contained about 70-90 million counts. Emission images obtained after intravenous injection of […]-1,110 MBq (25-30 mCi) of generator-produced rubidium-82 (^82Rb) contained about 20-30 million counts. The protocol used the following imaging sequence as illustrated in FIG. 7.
# Step 1. Immediately after completion of a resting perfusion image with intravenous ^82Rb, 3 mg/ml adenosine (Fujisawa Healthcare, Deerfield, Ill.) was infused subselectively into the LCx for 4 min at 2 ml/min. […]
# myocardial perfusion = assay: Rest-dipyridamole myocardial perfusion PET with Markovian homogeneity analysis; format: in vivo, human
# Description: Study Patients. The population for this study consists of 1,034 consecutive subjects undergoing diagnostic, rest-dipyridamole, myocardial perfusion PET at The Weatherhead PET Center For Preventing and Reversing Atherosclerosis of the University of Texas Medical School—Houston. All subjects signed informed consent approved by the Committee for the Protection of Human Subjects of the University of Texas Health Science Center. A complete medical history was obtained on all patients undergoing diagnostic cardiac PET for assessment or follow-up of known CAD, for second opinions on revascularization procedures, for prior positive stress tests, for coronary calcification by CT, for chest pain or other symptoms, for screening, or for risk factors. A history of risk factors was obtained for age, sex, diabetes, hypertension, high cholesterol, family history of vascular disease, excess weight, lack of exercise, and past or present smoking, that were counted as positive even if treated, as with hypertensive or lipid-lowering medications.
# PET. Patients were instructed to fast for 4 h and abstain from caffeine, theophylline, and cigarettes for 24 h before study. PET was performed using the University of Texas designed, Positron Posicam Auricle, bismuth germanate, 2-dimensional (2D) multislice tomograph with a reconstructed resolution of 10-mm full width at half maximum. Using a rotating rod source containing 148-185 MBq (4-5 mCi) of ^68Ge, transmission images to correct for photon attenuation contained approximately 40-60 million counts. Emission images obtained after intravenous injection of 925-1,850 MBq (25-50 mCi) of generator-produced ^82Rb contained 20-50 million counts depending on the age of the generator and size of the patient. After resting ^82Rb data acquisition, dipyridamole (0.142 mg/kg/min) was infused for 4 min. At 4 min after completion of the dipyridamole infusion, the same dose of ^82Rb was given intravenously.
# Automated Quantitative Analysis of PET Images. […]
# [2] = intracoronary ET-1 1.5-3.5 ng/kg/min for 10 min, repeated doses in six dogs
structure (smiles),measurement,setting,value
"Cc1cc(C)nc(O[C@H](C(=O)O)C(C)(c2ccccc2)c2ccccc2)n1 [BSF 302146, [+]-[S]-2-[4,6-dimethyl-pyridimin-2-yloxy]-3,3-diphenyl-butanoic acid]",inhibition of neointimal and medial thickening,endothelin 1A receptor,potent inhibitor
"CC[C@H](C)[C@H](NC(=O)[C@H](CC(=O)O)NC(=O)[C@H](CC(C)C)NC(=O)[C@H](Cc1cnc[nH]1)NC(=O)[C@@H]1CSSC[C@H](N)C(=O)N[C@@H](CO)C(=O)N[C@H]2CSSC[C@H](NC(=O)[C@H](CCC(=O)O)NC(=O)[C@H](CCCCN)NC(=O)[C@H](CC(=O)O)NC(=O)[C@H](CCSC)NC(=O)[C@H](CC(C)C)NC(=O)[C@H](CO)NC(=O)[C@H](CO)NC2=O)C(=O)N[C@@H](C(C)C)C(=O)N[C@@H](Cc2ccc(O)cc2)C(=O)N[C@@H](Cc2ccccc2)C(=O)N1)C(=O)N[C@H](C(=O)N[C@@H](Cc1c[nH]c2ccccc12)C(=O)O)[C@@H](C)CC [ET-1, endothelin-1]",ΔET − Baseline (severity of ET-induced defect),[1]; Group 1,−12.7%
same,ET: LCx 82Rb uptake as % of baseline,"[1]; Group 1, after intracoronary ET-1, total dose 44.3 ng",89.3%
same,ET: LCx 82Rb uptake as % of baseline,"[1]; Group 1, after intracoronary ET-1, total dose 44.3 ng, listed as ET",89.3 ± 7.3%
same,ΔET − Baseline (severity of ET-induced defect),"[1]; Group 1, listed as ET",−12.7 ± 6.7%
same,ΔET − Baseline (severity of ET-induced defect),[1]; Group 2,−11.1%
same,ET: LCx 82Rb uptake as % of baseline,"[1]; Group 2, after intracoronary ET-1, total dose 67.5 ng",90.2%
same,ET: LCx 82Rb uptake as % of baseline,"[1]; Group 2, after intracoronary ET-1, total dose 67.5 ng, listed as ET",90.2 ± 8.1%
same,ΔET − Baseline (severity of ET-induced defect),"[1]; Group 2, listed as ET",−11.1 ± 11.9%
same,death because of ET-1 administration,[1]; [2],no animal died
same,tachyarrhythmia,[1]; [2],No tachyarrhythmia developed
same,severity of perfusion defect after intracoronary infusion,[1],−10.13%
same,duration of perfusion defect after intracoronary ET-1 infusion,"[1]; pilot dose-finding, three dogs, in several instances",up to 5 h
same,time at which perfusion defect was first observed,"[1]; pilot dose-finding, end of initial intracoronary ET-1 infusion",≥ 10 min
"CNC(=N)NCCC[C@H](N)C(=O)O [L-NMMA, N^G-monomethyl-L-arginine]",severity of perfusion defect after intracoronary infusion,[1],−2.48%
Nc1ncnc2c1ncn2[C@@H]1O[C@H](CO)[C@@H](O)[C@H]1O [adenosine],ΔAD i.c − ET (percent change in LCx uptake),[1]; Group 1,8.7%
same,ΔAD i.v. − ET (change of defect after intravenous adenosine),[1]; Group 1,+4.1%
same,AD i.c. pre-ET: LCx 82Rb uptake as % of baseline,"[1]; Group 1 (n = 8, defect improved after i.v. adenosine)",102%
same,AD i.c. pre-ET: LCx 82Rb uptake as % of baseline,"[1]; Group 1 (n = 8, defect improved after i.v. adenosine), listed as AD",102.0 ± 5.5%
same,AD i.c. post-ET: LCx 82Rb uptake as % of baseline,[1]; Group 1,98.7%
same,AD i.c. post-ET: LCx 82Rb uptake as % of baseline,"[1]; Group 1, listed as AD",98.7 ± 5.5%
same,AD i.v.: LCx 82Rb uptake as % of baseline,[1]; Group 1,93.4%
same,AD i.v.: LCx 82Rb uptake as % of baseline,"[1]; Group 1, listed as AD",93.4 ± 6.0%
same,ΔAD i.c − ET (percent change in LCx uptake),"[1]; Group 1, listed as AD",8.7 ± 4.3%
same,ΔAD i.v. − ET (change of defect after intravenous adenosine),"[1]; Group 1, listed as AD",4.1 ± 2.0%
same,ΔAD i.c − ET (percent change in LCx uptake),[1]; Group 2,10.5%
same,ΔAD i.v. − ET (change of defect after intravenous adenosine),[1]; Group 2,−12.5%
same,AD i.c. pre-ET: LCx 82Rb uptake as % of baseline,"[1]; Group 2 (n = 15, defect not improved or worse after i.v. adenosine)",101.3%
same,AD i.c. pre-ET: LCx 82Rb uptake as % of baseline,"[1]; Group 2 (n = 15, defect not improved or worse after i.v. adenosine), listed as AD",101.3 ± 5.2%
same,AD i.c. post-ET: LCx 82Rb uptake as % of baseline,[1]; Group 2,100.5%
same,AD i.c. post-ET: LCx 82Rb uptake as % of baseline,"[1]; Group 2, listed as AD",100.5 ± 4.3%
same,AD i.v.: LCx 82Rb uptake as % of baseline,[1]; Group 2,77.7%
same,AD i.v.: LCx 82Rb uptake as % of baseline,"[1]; Group 2, listed as AD",77.7 ± 14.5%
same,ΔAD i.c − ET (percent change in LCx uptake),"[1]; Group 2, listed as AD",10.5 ± 8.5%
same,ΔAD i.v. − ET (change of defect after intravenous adenosine),"[1]; Group 2, listed as AD",−12.5 ± 9.2%
same,effect of intracoronary adenosine on ET-1-induced resting perfusion defects,[1]; all experiments,normalized
same,effect of intravenous adenosine on vasoconstrictor effect of ET-1,"[1]; doses comparable to clinical practice, all 23 protocol sequences",only partially counteracted
same,visual change of ET-1-induced perfusion defect after intravenous adenosine,[1]; group 1 (n=8),improved
same,visual change of ET-1-induced perfusion defect after intravenous adenosine,[1]; group 2 (n=15),visually not improved or relatively worse
OCCN(CCO)c1nc(N2CCCCC2)c2nc(N(CCO)CCO)nc(N3CCCCC3)c2n1 [dipyridamole],lowest mean average quadrant activity on the dipyridamole scan,myocardial perfusion; patient with severe stress-induced perfusion defect,63 % of maximum
same,homogeneity index by Markovian analysis after dipyridamole,"myocardial perfusion; patient with severe stress-induced perfusion defect, 0.34 at rest",0.49
same,homogeneity index by Markovian analysis after dipyridamole,"myocardial perfusion; young healthy volunteer without risk factors, 0.80 at rest",0.83
